Measured values published in patent publication US9216999B2, “Substituted pyrrolo[2,3-h][1,6]naphthyridines and compositions thereof as JAK inhibitors” (priority 2011, dated 2015).

Legend:
JAK1 [1] = biological target: T1, JAK1 (Homo sapiens (Human), UniProt P23458); assay: JAK1 enzyme assay (Assay Example^b 1)
JAK3 [2] = biological target: T2, JAK3 (Homo sapiens (Human), UniProt P52333); assay: JAK3 enzyme assay (Assay Example^b 1)
Tyk2 [3] = biological target: T3, Tyk2 (Homo sapiens (Human), UniProt P29597); assay: Tyk2 enzyme assay (Assay Example^b 1); details: ATP 100 μM
Tyk2 [4] = biological target: T3, Tyk2; assay: Enzyme assay (Assay Example^a 1), Tyk2; format: biochemical; details: ATP 100 μM
JAK1 [5] = biological target: T1, JAK1; assay: Enzyme assay (Assay Example^a 1), JAK1; format: biochemical; details: ATP 100 μM
JAK2 = JAK2 (Homo sapiens (Human), UniProt O60674); assay: Enzyme assay (Assay Example^a 1), JAK2; format: biochemical; details: ATP 100 μM
JAK3 [6] = biological target: T2, JAK3; assay: Enzyme assay (Assay Example^a 1), JAK3; format: biochemical; details: ATP 100 μM
[7] = IC50 (μM) JAK1, Table^b 80, ATP 100 μM
[8] = IC50 (μM) JAK3, Table^b 80, ATP 100 μM
[9] = IC50 (μM) JAK3, Table^b 78, ATP 100 μM
[10] = IC50 (μM) JAK1, Table^b 78, ATP 100 μM

T3 sequence (P29597 whole entry): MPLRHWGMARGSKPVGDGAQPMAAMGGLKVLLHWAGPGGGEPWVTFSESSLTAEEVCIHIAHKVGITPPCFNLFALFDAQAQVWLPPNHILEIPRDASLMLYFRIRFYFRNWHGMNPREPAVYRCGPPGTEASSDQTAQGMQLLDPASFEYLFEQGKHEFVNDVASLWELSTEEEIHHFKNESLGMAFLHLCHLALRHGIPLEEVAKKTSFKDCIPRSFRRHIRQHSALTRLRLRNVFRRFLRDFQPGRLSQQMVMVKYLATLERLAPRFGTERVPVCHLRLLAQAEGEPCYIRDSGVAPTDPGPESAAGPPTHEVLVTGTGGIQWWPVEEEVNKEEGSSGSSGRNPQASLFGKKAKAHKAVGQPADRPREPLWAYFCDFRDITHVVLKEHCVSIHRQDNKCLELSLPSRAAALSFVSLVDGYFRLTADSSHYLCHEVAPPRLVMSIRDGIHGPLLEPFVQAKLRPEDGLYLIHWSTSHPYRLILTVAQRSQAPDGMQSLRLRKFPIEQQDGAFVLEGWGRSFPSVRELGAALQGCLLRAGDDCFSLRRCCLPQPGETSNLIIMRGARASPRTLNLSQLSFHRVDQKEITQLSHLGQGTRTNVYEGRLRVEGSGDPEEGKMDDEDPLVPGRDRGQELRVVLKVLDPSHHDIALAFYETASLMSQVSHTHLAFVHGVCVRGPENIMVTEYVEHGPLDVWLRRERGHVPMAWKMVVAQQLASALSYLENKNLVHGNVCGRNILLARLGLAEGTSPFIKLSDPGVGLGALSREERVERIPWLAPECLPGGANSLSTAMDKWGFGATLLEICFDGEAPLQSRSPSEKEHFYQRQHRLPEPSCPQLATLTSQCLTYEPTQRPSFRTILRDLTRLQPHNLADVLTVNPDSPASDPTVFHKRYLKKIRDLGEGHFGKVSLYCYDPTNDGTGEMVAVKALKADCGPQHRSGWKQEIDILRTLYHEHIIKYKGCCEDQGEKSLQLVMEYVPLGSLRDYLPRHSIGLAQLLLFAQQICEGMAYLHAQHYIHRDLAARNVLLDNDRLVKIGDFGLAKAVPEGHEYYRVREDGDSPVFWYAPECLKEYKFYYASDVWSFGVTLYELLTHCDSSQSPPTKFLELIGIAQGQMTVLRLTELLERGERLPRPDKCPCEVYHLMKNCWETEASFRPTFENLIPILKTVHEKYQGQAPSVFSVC
T2 sequence (P52333 whole entry): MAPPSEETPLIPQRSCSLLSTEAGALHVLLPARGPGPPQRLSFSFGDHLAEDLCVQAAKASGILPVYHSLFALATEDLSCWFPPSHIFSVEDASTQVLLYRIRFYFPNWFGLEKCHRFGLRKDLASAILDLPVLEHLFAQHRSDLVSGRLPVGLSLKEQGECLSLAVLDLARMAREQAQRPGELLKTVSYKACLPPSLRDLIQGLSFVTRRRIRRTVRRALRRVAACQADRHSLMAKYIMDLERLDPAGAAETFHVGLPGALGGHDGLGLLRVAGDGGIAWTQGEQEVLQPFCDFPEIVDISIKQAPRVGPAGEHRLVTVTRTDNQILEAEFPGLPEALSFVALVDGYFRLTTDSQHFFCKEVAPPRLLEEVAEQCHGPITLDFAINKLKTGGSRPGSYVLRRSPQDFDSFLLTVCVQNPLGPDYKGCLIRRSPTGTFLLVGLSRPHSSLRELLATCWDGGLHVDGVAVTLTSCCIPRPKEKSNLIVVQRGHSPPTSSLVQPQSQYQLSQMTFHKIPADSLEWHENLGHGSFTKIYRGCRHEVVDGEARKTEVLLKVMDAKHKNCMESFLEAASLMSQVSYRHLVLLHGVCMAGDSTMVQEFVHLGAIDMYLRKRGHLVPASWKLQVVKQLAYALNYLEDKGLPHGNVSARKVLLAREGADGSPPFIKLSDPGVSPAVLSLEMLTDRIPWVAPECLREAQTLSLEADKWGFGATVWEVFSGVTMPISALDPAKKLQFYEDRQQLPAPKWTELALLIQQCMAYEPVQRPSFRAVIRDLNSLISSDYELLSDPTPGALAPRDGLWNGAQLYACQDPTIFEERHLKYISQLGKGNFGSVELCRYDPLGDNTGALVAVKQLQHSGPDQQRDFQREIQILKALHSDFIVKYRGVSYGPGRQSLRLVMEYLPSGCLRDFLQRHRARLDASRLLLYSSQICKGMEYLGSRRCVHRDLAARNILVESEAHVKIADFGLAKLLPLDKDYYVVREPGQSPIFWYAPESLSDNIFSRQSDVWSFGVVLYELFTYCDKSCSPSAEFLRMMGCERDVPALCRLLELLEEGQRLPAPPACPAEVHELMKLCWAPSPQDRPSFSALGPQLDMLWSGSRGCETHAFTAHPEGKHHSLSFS

O=C1NCc2cnc3[nH]ccc3c2N1C1CCN(Cc2ccc(C(F)(F)F)cc2)CC1 [compound 63]
IC50 (JAK1 [1]; [7]): 0.12 µM

O=c1[nH]c(=O)n(C2CCC(CNCC3CC3)CC2)c2c1cnc1[nH]ccc12 (stereo not shown) [compound 117]
IC50 (JAK3 [2]; IC50 (μM) JAK3, ATP 100 μM): > 1 µM | IC50 (JAK1 [1]; IC50 (μM) JAK1, ATP 100 μM): 0.03 µM

CN(CC(F)(F)F)C[C@H]1CC[C@H](n2c(=O)[nH]c(=O)c3cnc4[nH]ccc4c32)CC1 [Synthetic Example^b 136, 1-(trans-4-{[Methyl(2,2,2-trifluoroethyl)amino]methyl}cyclohexyl)-1H-pyrrolo[3′,2′:5,6]pyrido[4,3-d]pyrimidine-2,4(3H,7H)-dione]
IC50 (JAK3 [2]; IC50 (μM) JAK3, ATP 100 μM): 0.75 µM | IC50 (JAK1 [1]; IC50 (μM) JAK1, ATP 100 μM): 0.0032 µM

C[C@@H]1CCN(C(=O)OCc2ccccc2)C[C@@H]1n1ccc(=O)c2cnc3[nH]ccc3c21 (racemic) [compound 35]
IC50 (JAK3 [2]; [8]): 0.11 µM

Cc1cn([C@H]2CN(Cc3ccccc3)CC[C@H]2C)c2c(cnc3[nH]ccc32)c1=O (racemic) [compound 23]
IC50 (JAK1 [1]; [7]): 0.035 µM

O=c1ccn(C2CCN(Cc3cnc(Br)s3)CC2)c2c1cnc1[nH]ccc12 [compound 83]
IC50 (JAK3 [2]; [8]): 0.62 µM

CC(C#N)n1c(=O)c2cnc3[nH]ccc3c2n(C2CCCCC2)c1=O (racemic) [compound 146]
IC50 (JAK3 [2]; IC50 (μM) JAK3, ATP 100 μM): > 1 µM

C[C@@H]1CCN(C2CCCC2)C[C@@H]1n1ccc(=O)c2cnc3[nH]ccc3c21 (racemic) [compound 47]
IC50 (Tyk2 [3]; IC50 (μM) TYK2, Table^b 80): > 1 µM

C[C@@H]1CCN(C(=O)CC#N)C[C@@H]1N1COCc2cnc3[nH]ccc3c21 (racemic) [compound 16]
IC50 (JAK3 [2]; [9]): 0.11 µM | IC50 (JAK1 [1]; [10]): 0.038 µM

O=c1[nH]c(=O)n([C@H]2CC[C@H](CNCC3(O)CCCCC3)CC2)c2c1cnc1[nH]ccc12 [compound 126]
IC50 (JAK3 [2]; IC50 (μM) JAK3, ATP 100 μM): > 1 µM

O=c1[nH]c(=O)n(C2CCN(CC3CC3)CC2)c2c1cnc1[nH]ccc12 [compound 91]
IC50 (JAK3 [2]; IC50 (μM) JAK3, ATP 100 μM): > 1 µM

CC(CO)(CO)Cn1c(=O)c2cnc3[nH]ccc3c2n(C2CCCCC2)c1=O [compound 151]
IC50 (JAK3 [2]; IC50 (μM) JAK3, ATP 100 μM): > 1 µM

O=c1ncc2cnc3[nH]ccc3c2n1C1CCCCC1 [compound 18]
IC50 (Tyk2 [3]; IC50 (μM) TYK2, Table^b 79): 0.25 µM

O=c1ccn(C2CCN(Cc3ccc4[nH]ccc4c3)CC2)c2c1cnc1[nH]ccc12 [compound 85]
IC50 (JAK3 [2]; [8]): > 1 µM

N#CCC(=O)N(CC(F)(F)F)C[C@H]1CC[C@H](n2c(=O)[nH]c(=O)c3cnc4[nH]ccc4c32)CC1 [Synthetic Example^b 135, 2-Cyano-N-{[trans-4-(2,4-dioxo-2,3,4,7-tetrahydro-1H-pyrrolo[3′,2′:5,6]pyrido[4,3-d]pyrimidin-1-yl)cyclohexyl]methyl}-N-(2,2,2-trifluoroethyl)acetamide]
IC50 (JAK3 [2]; IC50 (μM) JAK3, ATP 100 μM): 0.5 µM

O=c1ccn(C2CCN(Cc3ccc(Br)s3)CC2)c2c1cnc1[nH]ccc12 [compound 81]
IC50 (JAK3 [2]; [8]): 0.031 µM

O=c1ccn(C2CCN(Cc3ccc(C(F)(F)F)o3)CC2)c2c1cnc1[nH]ccc12 [compound 71]
IC50 (JAK3 [2]; [8]): 0.46 µM

CN(C)CCn1c(=O)c2cnc3[nH]ccc3c2n(C2CCCCC2)c1=O [compound 153]
IC50 (JAK3 [2]; IC50 (μM) JAK3, ATP 100 μM): > 1 µM

O=c1[nH]c(=O)n(C2CCN(Cc3ccc(C(F)(F)F)cc3)CC2)c2c1cnc1[nH]ccc12 [compound 52]
IC50 (JAK3 [2]; [8]): > 1 µM

C[C@@H]1CCN(C(=O)c2cccc(C(F)(F)F)c2)C[C@@H]1n1ccc(=O)c2cnc3[nH]ccc3c21 (racemic) [compound 31]
IC50 (JAK3 [2]; [8]): > 1 µM

O=c1[nH]c(=O)n(C2CCC(CN(CCO)Cc3ccccc3)CC2)c2c1cnc1[nH]ccc12 (stereo not shown) [compound 121]
IC50 (JAK3 [2]; IC50 (μM) JAK3, ATP 100 μM): > 1 µM

O=c1c2cnc3[nH]ccc3c2n(C2CCCCC2)c(=O)n1C1CCNCC1 [compound 154]
IC50 (JAK3 [2]; IC50 (μM) JAK3, ATP 100 μM): > 1 µM

C[C@@H]1CCN(S(=O)(=O)c2ccccc2C#N)C[C@@H]1n1ccc(=O)c2cnc3[nH]ccc3c21 (racemic) [compound 25]
IC50 (JAK3 [2]; [8]): 0.07 µM

O=S1(=O)C=CN(C2CCCCC2)c2c1cnc1[nH]ccc21 [compound 12]
IC50 (Tyk2 [3]; IC50 (μM) TYK2, Table^b 79): > 1 µM | IC50 (JAK1 [1]; [10]): 0.13 µM

O=C(CC(F)(F)F)N1CCC(N2C(=O)NCc3cnc4[nH]ccc4c32)CC1 [compound 65]
IC50 (JAK3 [2]; [8]): 9.5 µM | IC50 (Tyk2 [3]; IC50 (μM) TYK2, Table^b 80): 2.9 µM

O=C1NCc2cnc3[nH]ccc3c2N1C1CCN(Cc2cccnc2)CC1 [compound 61]
IC50 (Tyk2 [3]; IC50 (μM) TYK2, Table^b 80): 3.6 µM

O=c1[nH]c(=O)n([C@H]2CC[C@H](CN3CC[C@@H](O)C3)CC2)c2c1cnc1[nH]ccc12 [compound 112]
IC50 (JAK1 [1]; IC50 (μM) JAK1, ATP 100 μM): 0.0026 µM

N#Cc1ccc(CN2CCC(N3C(=O)NCc4cnc5[nH]ccc5c43)CC2)cc1 [compound 62]
IC50 (JAK3 [2]; [8]): > 1 µM | IC50 (Tyk2 [3]; IC50 (μM) TYK2, Table^b 80): > 1 µM

O=c1ccn(C2CCN(Cc3ccc(Cl)c(Cl)c3)CC2)c2c1cnc1[nH]ccc12 [compound 75]
IC50 (JAK3 [2]; [8]): > 1 µM

Cc1nc(CN2CCC(n3ccc(=O)c4cnc5[nH]ccc5c43)CC2)cs1 [compound 86]
IC50 (JAK1 [1]; [7]): 0.043 µM

O=c1ccn(C2CCCCC2)c2c1cnc1[nH]cnc12 [compound 20]
IC50 (Tyk2 [3]; IC50 (μM) TYK2, Table^b 79): 0.76 µM | IC50 (JAK1 [1]; [10]): 0.28 µM

C[C@@H]1CCN(Cc2cccc(C(F)(F)F)c2)C[C@@H]1n1ccc(=O)c2cnc3[nH]ccc3c21 (racemic) [compound 39]
IC50 (JAK3 [2]; [8]): 0.18 µM

O=c1ccn(C2CCN(Cc3ccccc3)CC2)c2c1cnc1[nH]ccc12 [compound 54]
IC50 (JAK3 [2]; [8]): 0.47 µM

O=c1ccn(C2CCN(Cc3ccc([N+](=O)[O-])o3)CC2)c2c1cnc1[nH]ccc12 [compound 72]
IC50 (JAK3 [2]; [8]): > 1 µM

CCC(C)CN1CCC(n2c(=O)[nH]c(=O)c3cnc4[nH]ccc4c32)CC1 (racemic) [compound 92]
IC50 (JAK3 [2]; IC50 (μM) JAK3, ATP 100 μM): > 1 µM

N#CC=CC1CCC(n2c(=O)[nH]c(=O)c3cnc4[nH]ccc4c32)CC1 (stereo not shown) [compound 103]
IC50 (JAK3 [2]; IC50 (μM) JAK3, ATP 100 μM): > 1 µM

O=c1ccn(C2CCCCC2)c2c1cnc1[nH]ccc12 [compound 3]
IC50 (JAK3 [2]; [9]): 0.22 µM | IC50 (JAK1 [1]; [10]): 0.017 µM

N#CCC1CN(C[C@H]2CC[C@H](n3c(=O)[nH]c(=O)c4cnc5[nH]ccc5c43)CC2)C1 [compound 124]
IC50 (JAK3 [2]; IC50 (μM) JAK3, ATP 100 μM): > 1 µM

O=c1c2cnc3[nH]ccc3c2n(C2CCCCC2)c(=O)n1CCN1CCOCC1 [compound 142]
IC50 (JAK3 [2]; IC50 (μM) JAK3, ATP 100 μM): > 1 µM

O=c1[nH]c(=O)n(C2CCN(CCC3CCOCC3)CC2)c2c1cnc1[nH]ccc12 [compound 93]
IC50 (JAK3 [2]; IC50 (μM) JAK3, ATP 100 μM): > 1 µM

COc1ccc(CNC[C@H]2CC[C@H](c3nnn4cnc5[nH]ccc5c34)CC2)cc1 [compound 270, 1-[trans-4-(7H-pyrrolo[3,2-e][1,2,3]triazolo[1,5-c]pyrimidin-1-yl)cyclohexyl]-N-(4-methoxybenzyl)methanamine]
IC50 (Tyk2 [4]): 0.0048 µM | IC50 (JAK1 [5]): 0.012 µM | IC50 (JAK2): 0.1 µM | IC50 (JAK3 [6]): 0.75 µM

N#Cc1ccc(CN2CCC(c3nnn4cnc5[nH]ccc5c34)CC2)cc1C(F)(F)F [compound 244, 4-{[4-(7H-pyrrolo[3,2-e][1,2,3]triazolo[1,5-c]pyrimidin-1-yl)piperidin-1-yl]methyl}-2-(trifluoromethyl)benzonitrile]
IC50 (Tyk2 [4]): 0.79 µM | IC50 (JAK1 [5]): 0.0054 µM | IC50 (JAK2): 0.038 µM | IC50 (JAK3 [6]): 0.44 µM

O=C1COc2ccc(CN3CCC(c4nnn5cnc6[nH]ccc6c45)CC3)cc2N1 [compound 225, 6-{[4-(7H-pyrrolo[3,2-e][1,2,3]triazolo[1,5-c]pyrimidin-1-yl)piperidin-1-yl]methyl}-2H-benzo[b][1,4]oxazin-3(4H)-one]
IC50 (Tyk2 [4]): > 1 µM | IC50 (JAK1 [5]): 0.021 µM | IC50 (JAK2): 0.2 µM | IC50 (JAK3 [6]): > 1 µM

c1cc2c(ncn3nnc([C@H]4CC[C@@H](CNC5CC5)CC4)c23)[nH]1 [compound 406, N-{[cis-4-(7H-pyrrolo[3,2-e][1,2,3]triazolo[1,5-c]pyrimidin-1-yl)cyclohexyl]methyl}cyclopropanamine]
IC50 (Tyk2 [4]): 0.94 µM | IC50 (JAK1 [5]): 0.083 µM | IC50 (JAK2): 0.56 µM | IC50 (JAK3 [6]): > 1 µM

O=C(NCC(F)(F)F)C1CN(C[C@H]2CC[C@H](c3nnn4cnc5[nH]ccc5c34)CC2)C1 [compound 426, 1-{[trans-4-(7H-Pyrrolo[3,2-e][1,2,3]triazolo[1,5-c]pyrimidin-1-yl)cyclohexyl]methyl}-N-(2,2,2-trifluoroethyl)azetidine-3-carboxamide]
IC50 (Tyk2 [4]): 0.58 µM | IC50 (JAK1 [5]): 0.011 µM | IC50 (JAK2): 0.062 µM | IC50 (JAK3 [6]): 0.87 µM

C[C@@H]1CCN(C(=O)c2ccccc2C(F)(F)F)C[C@@H]1n1ccc(=O)c2cnc3[nH]ccc3c21 (racemic) [compound 30]
IC50 (JAK3 [2]; [8]): > 1 µM

OC1CN(C[C@H]2CC[C@H](c3nnn4cnc5[nH]ccc5c34)CC2)C1 [compound 257, 1-{[trans-4-(7H-pyrrolo[3,2-e][1,2,3]triazolo[1,5-c]pyrimidin-1-yl)cyclohexyl]methyl}azetidin-3-ol]
IC50 (Tyk2 [4]): 0.049 µM | IC50 (JAK1 [5]): 0.0017 µM | IC50 (JAK2): 0.016 µM | IC50 (JAK3 [6]): 0.49 µM

O=C1NCc2cnc3[nH]ccc3c2N1C1CCN(Cc2ccccc2)CC1 [compound 59]
IC50 (JAK3 [2]; [8]): 2.1 µM | IC50 (Tyk2 [3]; IC50 (μM) TYK2, Table^b 80): 4.3 µM

[N-]=[N+]=NC[C@H]1CC[C@H](c2nnn3cnc4[nH]ccc4c23)CC1 [compound 369, 1-[trans-4-(Azidomethyl)cyclohexyl]-7H-pyrrolo[3,2-e][1,2,3]triazolo[1,5-c]pyrimidine]
IC50 (Tyk2 [4]): 0.0092 µM | IC50 (JAK1 [5]): 0.00033 µM | IC50 (JAK2): 0.0017 µM | IC50 (JAK3 [6]): 0.048 µM

CO[C@H]1CC[C@H](n2ccc(=O)c3cnc4[nH]ccc4c32)CC1 [compound 70]
IC50 (JAK3 [2]; [8]): > 1 µM

CN(C)C(=O)Cn1c(=O)c2cnc3[nH]ccc3c2n(C2CCCCC2)c1=O [compound 152]
IC50 (JAK3 [2]; IC50 (μM) JAK3, ATP 100 μM): 0.48 µM

O=C1SCCC1NC[C@H]1CC[C@H](c2nnn3cnc4[nH]ccc4c23)CC1 (stereo partly drawn) [compound 253, 3-({[trans-4-(7H-pyrrolo[3,2-e][1,2,3]triazolo[1,5-c]pyrimidin-1-yl)cyclohexyl]methyl}amino)dihydrothiophen-2(3H)-one]
IC50 (Tyk2 [4]): 0.044 µM | IC50 (JAK1 [5]): 0.0011 µM | IC50 (JAK2): 0.0066 µM | IC50 (JAK3 [6]): 0.14 µM
